Results: PMC11839852, “Preclinical comparison of (radio)lanthanides using mass spectrometry and nuclear imaging techniques: biodistribution of lanthanide-based tumor-targeting agents and lanthanides in ionic form” (European Journal of Nuclear Medicine and Molecular Imaging, 2024)
Marks after values point to notes of the source that are not given here.

How the values were obtained:
AR42J tumor cells = assay: In vitro cell uptake of lanthanide chloride salts; assay type: cell-based, rat; settings: 1 h incubation
Protocol: (§1) A mixture of equal molar amounts of the lanthanide chloride salts (100 nM stock solutions of ^natLuCl3, ^natTbCl3, ^natGdCl3, and ^natEuCl3, diluted in saline with an adjusted pH value to 3.5‒4.0) was prepared to obtain a final concentration of 10 pmol/mL (2.5 pmol/mL per lanthanide salt) and tested with AR42J, PC-3 PIP and KB tumor cells according to the same protocol as described for the Ln-labeled biomolecules (Supplementary Material). Analogous in vitro cell uptake studies were also performed with lanthanide metal complexes of diethylenetriaminepentaacetic acid (DTPA, Sigma Aldrich Chemie, Steinheim, Germany) to obtain a final concentration of 10 pmol/mL (2.5 pmol/mL per lanthanide complex) (Supplementary Material).
(§2) Cell uptake studies were performed in triplicate in 3‒6 independent experiments and the results presented as the average ± standard deviation (SD). Data were normalized to the values measured for the ^175Lu-labeled tumor targeting agent or [^175Lu]LuCl3, which were set as 100% and zero was defined as 0%. Statistical significance of the normalized data was assessed for the comparison of the values obtained for terbium, gadolinium and europium analogues with those obtained for the lutetium counterparts by applying one-way ANOVA with the Dunnett’s post-test using GraphPad Prism software (version 8). A p-value of < 0.05 was considered statistically significant.
(§3) Methods: The same experimental setting as described for Ln-labeled biomolecules was applied to perform uptake and internalization studies with the lanthanide salts (LnCl3; Ln = ^natLu, ^natTb, ^natGd and ^natEu). The applied solution was a mixture of the four lanthanide salts yielding a final concentration of 0.4 µM. Of these mixtures, 25 μL were added to the corresponding well with tumor cells. The cells were incubated for 1 h and 4 h, respectively, at 37 °C and 5% CO2. After incubation, the tumor cells were treated as described for the Ln-labeled biomolecules and processed for the measurement with ICP-MS.

PC-3 PIP tumor cells = assay: In vitro cell uptake of lanthanide chloride salts; assay type: cell-based, human; settings: both incubation times
Protocol: as §1, §2, §3

[1] = tested on: non-tumor-bearing immunocompetent FVB mice; assay: Biodistribution of lanthanide chloride salts LnCl3 (multiplexed ICP-MS); assay type: in vivo; settings: for Tissue uptake: Blood / Tissue uptake: Bone / Tissue uptake: Brain / Tissue uptake: Heart / Tissue uptake: Intestines / Tissue uptake: Kidneys / Tissue uptake: Liver / Tissue uptake: Lung / Tissue uptake: Muscle / Tissue uptake: Pancreas / Tissue uptake: Salivary glands / Tissue uptake: Spleen / Tissue uptake: Stomach: non-tumor-bearing mice
[2] = 24 h p.i., estimated ratios (organ <0.5% ID/g)
[3] = 96 h p.i., estimated ratios (organ <0.5% ID/g)

## [Cl][Gd]([Cl])[Cl] [[^157Gd]GdCl3]
AR42J tumor cells
  Detected fraction after acid-wash compared with lutetium: significantly lower
PC-3 PIP tumor cells
  Fraction retained after acid-wash compared with lutetium: higher
[1]; 1 h p.i.
  Organ ratios: Blood-to-bone: 0.37 ± 0.01
  Organ ratios: Blood-to-liver: 0.14 ± 0.02
  Organ ratios: Liver-to-bone: 2.6 ± 0.4
  Tissue uptake: Blood: 4.9 ± 0.3 % ID/g
  Tissue uptake: Bone: 13 ± 1 % ID/g
  Tissue uptake: Brain: 1.0 ± 0.6 % ID/g
  Tissue uptake: Heart: 5.0 ± 1.7 % ID/g
  Tissue uptake: Intestines: 2.5 ± 0.8 % ID/g
  Tissue uptake: Kidneys: 8.0 ± 2.0 % ID/g
  Tissue uptake: Liver: 34 ± 4 % ID/g
  Tissue uptake: Lung: 4.8 ± 0.4 % ID/g
  Tissue uptake: Muscle: 1.6 ± 0.6 % ID/g
  Tissue uptake: Pancreas: 2.2 ± 0.4 % ID/g
  Tissue uptake: Salivary glands: 2.8 ± 1.3 % ID/g
  Tissue uptake: Spleen: 6.3 ± 0.9 % ID/g
  Tissue uptake: Stomach: 6.2 ± 1.7 % ID/g
[1]; 24 h p.i.
  Organ ratios: Liver-to-bone: 2.2 ± 0.5
  Tissue uptake: Blood: <0.5 % ID/g
  Tissue uptake: Bone: 14 ± 2 % ID/g
  Tissue uptake: Brain: <0.5 % ID/g
  Tissue uptake: Heart: 1.2 ± 0.1 % ID/g
  Tissue uptake: Intestines: 0.71 ± 0.04 % ID/g
  Tissue uptake: Kidneys: 4.0 ± 0.9 % ID/g
  Tissue uptake: Lung: 1.3 ± 0.1 % ID/g
  Tissue uptake: Muscle: 1.1 ± 0.8 % ID/g
  Tissue uptake: Pancreas: 0.61 ± 0.11 % ID/g
  Tissue uptake: Salivary glands: 0.77 ± 0.16 % ID/g
  Tissue uptake: Spleen: 5.7 ± 1.1 % ID/g
  Tissue uptake: Stomach: 2.6 ± 0.1 % ID/g
[1]; [2]
  Organ ratios: Blood-to-bone: <0.03^*
  Organ ratios: Blood-to-liver: <0.02^*
[1]; 24 h p.i., listed as gadolinium
  Tissue uptake: Liver: 31 ± 6 % ID/g
[1]; 24 h p.i., listed as natGd
  Tissue uptake: Liver: ~ 31 % ID/g
[1]; 96 h p.i.
  Organ ratios: Liver-to-bone: 1.1 ± 0.2
  Tissue uptake: Blood: <0.5 % ID/g
  Tissue uptake: Bone: 17 ± 3 % ID/g
  Tissue uptake: Brain: <0.5 % ID/g
  Tissue uptake: Heart: 1.2 ± 0.1 % ID/g
  Tissue uptake: Intestines: 0.66 ± 0.07 % ID/g
  Tissue uptake: Kidneys: 2.0 ± 0.1 % ID/g
  Tissue uptake: Liver: 18 ± 1 % ID/g
  Tissue uptake: Lung: 1.1 ± 0.2 % ID/g
  Tissue uptake: Muscle: 0.51 ± 0.12 % ID/g
  Tissue uptake: Pancreas: 0.53 ± 0.10 % ID/g
  Tissue uptake: Salivary glands: 0.60 ± 0.08 % ID/g
  Tissue uptake: Spleen: 3.6 ± 0.3 % ID/g
  Tissue uptake: Stomach: 3.1 ± 0.8 % ID/g
[1]; [3]
  Organ ratios: Blood-to-bone: <0.03^*
  Organ ratios: Blood-to-liver: <0.03^*
